Measured values: patent US9499550B2 (BRISTOL-MYERS SQUIBB COMPANY, priority 2012, dated 2016)
Read-outs that look alike come from different tables or passages of the source.

Experiments:
[1] = tested on: HCV genotype 1a (H77 strain) replicon in HUH-7 cells; assay: HCV replicon luciferase reporter assay, genotype 1a; format: cell-based; settings: Hepatitis C virus, Huh-7, 72 h, HCV genotype 1a replicon luciferase assay, 3 days incubation, range class, read-out: LE_1a (EC50, range)
How it was run: (§1)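 Replicon inhibition for both genotypes was measured as Renilla luciferase signal (EnduRen, 7.5 μM final, 2 h) after 3-day, 37° C exposure of replicon-bearing HUH-7 cells in 4% FCS DMEM, 0.5% DMSO. The 1b construct carries S1179I; the 1a H77 construct carries P1496L and S2204I. Twenty-point, 3-fold dilutions were fitted four-parametrically for EC50, and CC50 was taken from multiplexed Cell Titer-Blue.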

[2] = tested on: HCV genotype 1b (Con1) replicon in HUH-7 cells; assay: HCV replicon luciferase reporter assay, genotype 1b; format: cell-based; settings: Hepatitis C virus, Huh-7, 72 h, HCV genotype 1b replicon luciferase assay, 3 days incubation, range class, read-out: LE_1b (EC50, range)
How it was run: as §1

Structure (SMILES)	EC50 [1] [nM]	EC50 [2] [nM]	EC50 ([1]; GETYPE1A) [nM]	EC50 ([2]; GETYPE1B) [nM]
COc1ccc2c(O[C@@H]3C[C@H]4C(=O)N[C@]5(C(=O)NS(=O)(=O)C6(CF)CC6)C[C@H]5/C=C\CC[C@H](C)C[C@@H](C)[C@H](NC(=O)OC(C)(C)C(F)(F)F)C(=O)N4C3)nc(OC)cc2c1 [Compound 1126, 1,1,1-trifluoro-2-methylpropan-2-yl((2R,6S,7R,9S,13aS,14aR,16aS,Z)-2-((3,6-dimethoxyisoquinolin-1-yl)oxy)-14a-(((1-(fluoromethyl)cyclopropyl)sulfonyl)carbamoyl)-7,9-dimethyl-5,16-dioxo-1,2,3,5,6,7,8,9,10,11,13a,14,14a,15,16,16a-hexadecahydrocyclopropa[e]pyrrolo[1,2-a][1,4]diazacyclopentadecin-6-yl)carbamate]	4.82 to 103	< 5.46		
COc1ccc2c(O[C@@H]3C[C@H]4C(=O)N[C@]5(C(=O)NS(=O)(=O)C6(CF)CC6)C[C@H]5/C=C\CC[C@@H](C)C[C@@H](C)[C@H](NC(=O)OC(C)(C)C(F)(F)F)C(=O)N4C3)nc(OC)cc2c1 [Compound 1127, 1,1,1-trifluoro-2-methylpropan-2-yl((2R,6S,7R,9R,13aS,14aR,16aS,Z)-2-((3,6-dimethoxyisoquinolin-1-yl)oxy)-14a-(((1-(fluoromethyl)cyclopropyl)sulfonyl)carbamoyl)-7,9-dimethyl-5,16-dioxo-1,2,3,5,6,7,8,9,10,11,13a,14,14a,15,16,16a-hexadecahydrocyclopropa[e]pyrrolo[1,2-a][1,4]diazacyclopentadecin-6-yl)carbamate]	< 5.46	< 5.46		
COc1ccc2c(O[C@@H]3C[C@H]4C(=O)N[C@]5(C(=O)NS(=O)(=O)C6(CF)CC6)C[C@H]5/C=C\CC[C@@H](C)C[C@@H](C)[C@H](NC(=O)OC(C)(C)C(C)(F)F)C(=O)N4C3)nc(OC)cc2c1 [Compound 1128]			< 5.46	< 5.46
COc1ccc2c(O[C@@H]3C[C@H]4C(=O)N[C@]5(C(=O)NS(=O)(=O)C6(CF)CC6)C[C@H]5/C=C\CC[C@@H](C)C[C@@H](C)[C@H](NC(=O)OC5COC5)C(=O)N4C3)nc(OC)cc2c1 [Compound 1129, oxetan-3-yl ((2R,6S,7R,9R,13aS,14aR,16aS,Z)-2-((3,6-dimethoxyisoquinolin-1-yl)oxy)-14a-(((1-(fluoromethyl)cyclopropyl)sulfonyl)carbamoyl)-7,9-dimethyl-5,16-dioxo-1,2,3,5,6,7,8,9,10,11,13a,14,14a,15,16,16a-hexadecahydrocyclopropa[e]pyrrolo[1,2-a][1,4]diazacyclopentadecin-6-yl)carbamate]	< 5.46	< 5.46		
COc1ccc2c(O[C@@H]3C[C@H]4C(=O)N[C@]5(C(=O)NS(=O)(=O)C6(C)CC6)C[C@H]5/C=C\CC[C@H](C)C[C@@H](C)[C@H](NC(=O)OC(C)(C)C)C(=O)N4C3)nc(OC)cc2c1 [Compound 1130, tert-butyl ((2R,6S,7R,9S,13aS,14aR,16aS,Z)-2-((3,6-dimethoxyisoquinolin-1-yl)oxy)-7,9-dimethyl-14a-(((1-methylcyclopropyl)sulfonyl)carbamoyl)-5,16-dioxo-1,2,3,5,6,7,8,9,10,11,13a,14,14a,15,16,16a-hexadecahydrocyclopropa[e]pyrrolo[1,2-a][1,4]diazacyclopentadecin-6-yl)carbamate]	< 5.46	< 5.46		
COc1ccc2c(O[C@@H]3C[C@H]4C(=O)N[C@]5(C(=O)NS(=O)(=O)C6(C)CC6)C[C@H]5/C=C\CC[C@@H](C)C[C@@H](C)[C@H](NC(=O)OC(C)(C)C)C(=O)N4C3)nc(OC)cc2c1 [Compound 1131, tert-butyl ((2R,6S,7R,9R,13aS,14aR,16aS,Z)-2-((3,6-dimethoxyisoquinolin-1-yl)oxy)-7,9-dimethyl-14a-(((1-methylcyclopropyl)sulfonyl)carbamoyl)-5,16-dioxo-1,2,3,5,6,7,8,9,10,11,13a,14,14a,15,16,16a-hexadecahydrocyclopropa[e]pyrrolo[1,2-a][1,4]diazacyclopentadecin-6-yl)carbamate]	< 5.46	< 5.46		
COc1ccc2c(O[C@@H]3C[C@H]4C(=O)N[C@]5(C(=O)NS(=O)(=O)C6(C)CC6)C[C@H]5/C=C\CC[C@H](C)C[C@@H](C)[C@H](NC(=O)OC(C)(C)C(F)(F)F)C(=O)N4C3)nc(OC)cc2c1 [Compound 1132, 1,1,1-trifluoro-2-methylpropan-2-yl((2R,6S,7R,9S,13aS,14aR,16aS,Z)-2-((3,6-dimethoxyisoquinolin-1-yl)oxy)-7,9-dimethyl-14a-(((1-methylcyclopropyl)sulfonyl)carbamoyl)-5,16-dioxo-1,2,3,5,6,7,8,9,10,11,13a,14,14a,15,16,16a-hexadecahydrocyclopropa[e]pyrrolo[1,2-a][1,4]diazacyclopentadecin-6-yl)carbamate]	< 5.46	< 5.46		
COc1ccc2c(O[C@@H]3C[C@H]4C(=O)N[C@]5(C(=O)NS(=O)(=O)C6(C)CC6)C[C@H]5/C=C\CC[C@@H](C)C[C@@H](C)[C@H](NC(=O)OC(C)(C)C(F)(F)F)C(=O)N4C3)nc(OC)cc2c1 [Compound 1133, 1,1,1-trifluoro-2-methylpropan-2-yl((2R,6S,7R,9R,13aS,14aR,16aS,Z)-2-((3,6-dimethoxyisoquinolin-1-yl)oxy)-7,9-dimethyl-14a-(((1-methylcyclopropyl)sulfonyl)carbamoyl)-5,16-dioxo-1,2,3,5,6,7,8,9,10,11,13a,14,14a,15,16,16a-hexadecahydrocyclopropa[e]pyrrolo[1,2-a][1,4]diazacyclopentadecin-6-yl)carbamate]	< 5.46	< 5.46		
CCN(C)c1cc2cc(OC)ccc2c(O[C@@H]2C[C@H]3C(=O)N[C@]4(C(=O)NS(=O)(=O)C5(CF)CC5)C[C@H]4/C=C\CC[C@H](C)C[C@@H](C)[C@H](NC(=O)OC(C)(C)C)C(=O)N3C2)n1 [Compound 1134, tert-butyl ((2R,6S,7R,9S,13aS,14aR,16aS,Z)-2-((3-(ethyl(methyl)amino)-6-methoxyisoquinolin-1-yl)oxy)-14a-(((1-(fluoromethyl)cyclopropyl)sulfonyl)carbamoyl)-7,9-dimethyl-5,16-dioxo-1,2,3,5,6,7,8,9,10,11,13a,14,14a,15,16,16a-hexadecahydrocyclopropa[e]pyrrolo[1,2-a][1,4]diazacyclopentadecin-6-yl)carbamate]	> 87.4	> 87.4		
CCN(C)c1cc2cc(OC)ccc2c(O[C@@H]2C[C@H]3C(=O)N[C@]4(C(=O)NS(=O)(=O)C5(CF)CC5)C[C@H]4/C=C\CC[C@@H](C)C[C@@H](C)[C@H](NC(=O)OC(C)(C)C)C(=O)N3C2)n1 [Compound 1135, tert-butyl ((2R,6S,7R,9R,13aS,14aR,16aS,Z)-2-((3-(ethyl(methyl)amino)-6-methoxyisoquinolin-1-yl)oxy)-14a-(((1-(fluoromethyl)cyclopropyl)sulfonyl)carbamoyl)-7,9-dimethyl-5,16-dioxo-1,2,3,5,6,7,8,9,10,11,13a,14,14a,15,16,16a-hexadecahydrocyclopropa[e]pyrrolo[1,2-a][1,4]diazacyclopentadecin-6-yl)carbamate]	4.82 to 103	< 5.46		
